Assay results as given in paper PMC8262356, “SLC26A6-selective inhibitor identified in a small-molecule screen blocks fluid absorption in small intestine” (JCI Insight, 2021).

Key:
slc26a1 = target: T1, slc26a1 (Mus musculus, UniProt P58735); assay: Selectivity: Cl-/I- exchange in 293T/17 cells transfected with slc26a1 and YFP; type: cell-based; settings: 25 μM, 10 min preincubation
T1 construct: expressed in transfected cells; host or cells: 293 T/17 cells, transient transfection with pIRES-HIF vector (IRES-YFP, not fused)
T1 sequence (P58735 1-704): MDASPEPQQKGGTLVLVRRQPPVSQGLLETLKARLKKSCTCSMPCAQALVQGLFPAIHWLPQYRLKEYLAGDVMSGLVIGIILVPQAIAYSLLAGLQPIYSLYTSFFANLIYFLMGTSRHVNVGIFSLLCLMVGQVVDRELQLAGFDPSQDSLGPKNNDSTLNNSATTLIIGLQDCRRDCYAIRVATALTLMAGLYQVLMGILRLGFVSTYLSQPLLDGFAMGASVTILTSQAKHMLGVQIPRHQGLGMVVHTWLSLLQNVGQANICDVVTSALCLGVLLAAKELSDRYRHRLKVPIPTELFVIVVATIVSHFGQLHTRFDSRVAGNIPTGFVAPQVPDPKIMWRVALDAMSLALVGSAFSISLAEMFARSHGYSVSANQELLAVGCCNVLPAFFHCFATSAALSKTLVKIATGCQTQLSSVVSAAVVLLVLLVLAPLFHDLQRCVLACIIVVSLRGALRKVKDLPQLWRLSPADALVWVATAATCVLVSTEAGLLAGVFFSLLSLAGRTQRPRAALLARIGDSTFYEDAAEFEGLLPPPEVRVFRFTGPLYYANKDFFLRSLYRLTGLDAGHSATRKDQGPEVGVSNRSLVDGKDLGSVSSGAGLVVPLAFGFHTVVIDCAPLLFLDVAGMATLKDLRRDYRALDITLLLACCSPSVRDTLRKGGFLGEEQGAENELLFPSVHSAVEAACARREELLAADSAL
Procedure: YFP-based cellular assays of slc26a3, slc26a4, SLC26A9, and TMEM16A function were performed as described previously ([7]). Slc26a1 and slc26a2 assays were done in transfected HEK 293 cells (see Supplemental Methods for details). Niflumic acid was used as a positive control for SLC26A isoforms ([7]). For TMEM16A, the selective small-molecule inhibitor TMinh-23 was used as a positive control ([28]). The activities of ENaC, CFTR, and CaCC were determined using well-differentiated HBE cells as described previously ([13]). Cl^–/HCO3^– exchange was measured as described previously ([7], [10], [11]). Briefly, cell cytoplasm was labeled with the pH-sensitive fluorescent dye BCECF-AM (Invitrogen), and Cl^–/HCO3^– exchange was measured in response to addition of a gluconate-containing solution to drive exchange of cytoplasmic Cl^– for extracellular HCO3^–, producing cytoplasmic alkalinization.
Slc26a1 and slc26a2 cDNA constructs
The complementar y DNA sequences of slc26a1 and slc26a2 were generated using gB LOCK gene fragments (Int egrat ed DNA technology, Coralville, IA) in the plasmid vector pIRESpuro3 (Takara, San J ose, CA). […]
PBS. […] Background-corrected, area-integrat ed single cell fluorescence was calcul ated for determination of slc26a1 / slc26a2 activit y from the rate of fluorescence quenching. […]

FRT cells = assay: Cytotoxicity, Alamar Blue assay; type: cell-based, rat; settings: 10 μM, 48 h
Procedure: FRT cells were plated in black-walled, clear-bottom tissue culture plates at a density of 20,000 cells/well. After 24 hours in culture, cells were incubated with 10 μM PAT1inh-B01, 0.1% DMSO (vehicle control), or 20 % DMSO (positive control) for 48 hours for assay of cell viability using Alamar Blue (Thermo Fischer Scientific) according to the manufacturer’s instructions.

Solubility = type: physicochemical

With `Cc1c(Br)c(C(F)(F)F)nn1CC(=O)N1CCc2nc3cc(-c4ccccc4)[nH]n3c(=O)c2C1` [PAT1inh-B01] the “effect on slc26a1 activity” value (slc26a1) was “did not affect”, the “cytotoxicity (cell viability, Alamar Blue)” value (FRT cells) was “did not cause cytotoxicity” and the solubility (Solubility) was “favorable”.
